Measurements taken from patent publication US20120122982A1, “USE OF PUFAS TO TREAT NERVE DAMAGE” (Equateq Limited, priority 2009, published 2012).

How the values were obtained:
Format in all cases: in vivo, rat
[1] = tested on: diabetic rats; experiment: Motor nerve conduction velocity (NCV) in sciatic nerve of streptozotocin-diabetic rats; conditions: for motor NCV: 2-week daily oral treatment after 6 weeks untreated diabetes, diabetic around 50 m/s, non-diabetic around 60 m/s; for ED50: Rattus norvegicus, calculated from dose response curves of FIG. 13; for times more potent than GLA in restoring motor nerve conduction velocity: from ED50 values
Experimental: (§1) Male Sprague-Dawley rats (Aberdeen University colony) were used, which were 19 weeks old at the start of the study. Diabetes was induced by intraperitoneal streptozotocin injection at 40-45 mg kg^−1 freshly dissolved in sterile 0.9% saline solution. This was verified 24 hours later by estimating hyperglycaemia (blood glucose>19.9 mM) and glycosuria, and diabetic state was monitored weekly using test strips for blood (tail vein) and urine glucose levels. Body weight was also monitored daily to check against body weight gain (which would indicate partial recovery of beta cell function and exclude diabetic status).
(§2) After 6 weeks of untreated diabetes, four experimental groups (n=6 per group) were treated for a 2-week period, with a daily oral administration of 13-HODE at a range of dosages (13-Hydoxydienoic acid, Equateq, Isle of Lewis, UK), added to the food and dispersed in a sunflower oil vehicle. Experimental groups were treated with doses of a representative compound of the invention,13-HODE, ranging from 0.01 mg/kg/day to 100 mg/kg/day.
Rats were anaesthetized with thiobutabarbital sodium (50-100 mg kg^−1 i.p.). The trachea was cannulated for artificial respiration.
The sciatic nerve was exposed between the sciatic notch and knee, and Motor nerve conduction velocity (NCV) was measured using concentric bipolar electrodes, as described in Cameron N E, et al (1989) Q J Exp Physiol 74:917-926 and Cameron N E, et al (1991) Diabetes 40:532-539, in the nerve branch to tibialis anterior muscle, which is representative of the whole sciatic nerve in terms of susceptibility to diabetes and treatment effects. Evoked electromyographic (EMG) potentials from each stimulating site were averaged 8 times, and Motor NCV was calculated by dividing the distance between stimulating electrodes by the average latency difference between the onset of EMG potentials evoked from the 2 sites. Nerve temperatures were monitored by thermocouple probes, and maintained in the range 36-38° C. by radiant heat. Body temperature was also maintained around 37° C. using a heated blanket.
Experiments were carried out in similar fashions to Examples 1 and 2 except that 15-HETrE was used instead of 13-HODE.
An experiment was carried out in accordance with the method of Example 1 to determine the effect of GLA, 13-HODE and 15-HETrE on Motor NCV in diabetic rats.

[2] = tested on: diabetic rats; experiment: Major pelvic ganglion blood flow by hydrogen clearance; conditions: 1 mg/kg/day in food for 2 weeks
[3] = tested on: diabetic rats; experiment: Sciatic nerve endoneurial blood flow by microelectrode polarography and hydrogen clearance; conditions: 1 mg/kg/day in food for 2 weeks, flow halved in diabetic rats
Experimental: Diabetes was induced in mature (19 week old) male Sprague-Dawley by streptozotocin injection (40-45 mg/kg i.p.). The diabetic state was monitored weekly using commercially available test strips for blood (tail vein) and urine glucose levels. Body weight would also be monitored daily. The criteria for the diabetic state are; blood glucose>19.9 mM, glycosuria, and no evidence of body weight gain (which would indicate partial recovery of beta cell function). At the end of the experiments, blood samples would be taken for the determination of plasma glucose. […]
Sciatic nerve endoneurial blood flows in non-diabetic control rats, diabetic rats treated with vehicle alone and diabetic rats treated with 13-HODE were estimated by microelectrode polarography and hydrogen clearance, using the methods described in Day T J, Lagerlund T D, Low P A (1989) Analysis of H2 clearance curves used to measure blood flow in rat sciatic nerve, J Physiol 414:35-54, and Cameron N E, Cotter M A, Low P A (1991) Nerve blood flow in early experimental diabetes in rats: relation to conduction deficits, Am J Physiol 261:E1-E8. […] The level of anaesthesia was monitored by observing any reaction of blood pressure to manipulation, and supplementary thiobutabarbital anaesthetic given as necessary. […]

[4] = tested on: diabetic rats; experiment: Hargreaves plantar test, withdrawal latency to noxious thermal stimulation of the foot; conditions: 1 mg/kg/day in food for 2 weeks
Experimental: (§3) Diabetes was induced in mature (19 week old) male Sprague-Dawley by streptozotocin injection (40-45 mg/kg i.p.). The diabetic state was monitored weekly using commercially available test strips for blood (tail vein) and urine glucose levels. Body weight would also be monitored daily. The criteria for the diabetic state are; blood glucose>19.9 mM, glycosuria, and no evidence of body weight gain (which would indicate partial recovery of beta cell function). At the end of the experiments, blood samples would be taken for the determination of plasma glucose.
Experiments were designed with a reversal (intervention) paradigm: diabetic rats were untreated for 6 weeks to allow the development of neurovascular dysfunction. They were then treated over the next 2 weeks with a dose of 1 mg/kg/day of a representative compound of the invention, 13-HODE, given as a dietary supplement dispersed in the food with a sunflower oil vehicle (50 ml/2.5 kg food). […]
Before final experiments, nociceptive latencies for withdrawal reflexes to noxious thermal stimulation of the foot were estimated by the Hargreaves plantar test using commercially available equipment (Ugo-Basile, Comerio, Italy). […] After 30 min acclimatization, a constant power infrared stimulus was focused through the glass base onto the sole of the foot and the latency for reflex foot withdrawal automatically recorded via a photoelectric monitor. […]

[5] = tested on: diabetic rats; experiment: Sensory nerve conduction velocity (NCV) in saphenous nerve of streptozotocin-diabetic rats; conditions: 2-week daily oral treatment after 6 weeks untreated diabetes, diabetic around 50 m/s, non-diabetic around 60 m/s
Experimental: as §1, §2
Rats were anaesthetized with thiobutabarbital sodium (50-100 mg kg^−1 i.p.). […]
An experiment was carried out in a similar fashion to Example 1 except that Sensory NCV was measured in the saphenous nerve between groin and mid calf. Direct nerve evoked potentials were recorded at the ankle using a unipolar platinum hook electrode. […]

[6] = tested on: diabetic rats; experiment: Randall-Sellito test, mechanical pressure thresholds; conditions: 1 mg/kg/day in food for 2 weeks
Experimental: as §3
(§4) Experiments were designed with a reversal (intervention) paradigm: diabetic rats were untreated for 6 weeks to allow the development of neurovascular dysfunction. They were then treated over the next 2 weeks with a dose of 1 mg/kg/day of a representative compound of the invention, 13-HODE, given as a dietary supplement dispersed in the food with a sunflower oil vehicle (50 ml/2.5 kg food). Groups of nondiabetic control rats and diabetic rats treated with vehicle alone were also studied.
Groups of non-diabetic control rats, diabetic rats treated with vehicle alone and diabetic rats treated with 13-HODE were obtained as in Example 4.
Before final experiments, nociceptive thresholds for mechanical stimulation were measured by the Randall-Sellito test . […]

[7] = tested on: diabetic rats; experiment: Corpus cavernosum pressure responses to cavernous nerve stimulation
Experimental: as §3
as §4, with “studied. […]” for “studied.”
Non-diabetic control rats, diabetic rats treated with vehicle alone and diabetic rats treated with 13-HODE were anaesthetized with thiobutabarbital (50-100 mg kg^−1 i.p.). […] Cavernosal pressure responses were recorded in response to 60 s periods of suprathreshold (3-5 mA) nerve stimulation at frequencies in the range 1-32 Hz (stimulus duration 1.5-2 ms). […]

[8] = tested on: diabetic rats; experiment: Tactile allodynia, electronic von Freys hair apparatus; conditions: 1 mg/kg/day in food for 2 weeks
Experimental: as §3
as §4, with “studied. […]” for “studied.”
Tactile allodynia in non-diabetic control rats, diabetic rats treated with vehicle alone and diabetic rats treated with 13-HODE was monitored using an electronic von Freys hair apparatus. […] Allodynia was measured for each foot on one day.

SMILES | motor NCV [1] | ED50 [1] | times more potent than GLA in restoring motor nerve conduction velocity [1] | major pelvic ganglion blood flow [2] | sciatic nerve endoneurial blood flow [3] | latency of response to thermal stimuli (increased sensitivity to noxious heat) [4] | sensory NCV [5] | sensitivity to mechanical deep pressure (foot withdrawal) [6] | whole-frequency response curve versus nondiabetic controls ([7]; 1 mg/kg/day for 2 weeks, 2-way ANOVA p<0.01) | cavernosal pressure responses to nerve stimulation: diabetic deficit ([7]; 1 mg/kg/day in food for 2 weeks, stimulation 1-32 Hz) | tactile allodynia (threshold for foot withdrawal to tactile stimulation) [8]
CCCCCC(O)/C=C/C=C\CCCCCCCC(=O)O (stereo not shown) [13-HODE, 13-Hydroxyoctadeca-9Z,11E-dienoic acid] | around 60 m/s | 0.057 mg/kg | approximately 3000 times | restored to within the nondiabetic range | completely restored | completely corrected | around 60 m/s | small but statistically significant improvement | significantly greater pressure response | completely corrected | almost completely reversed
CCCCCC(O)/C=C/C=C\C/C=C\CCCCCCC(=O)O (stereo not shown) [15-HETrE, 15-Hydroxy-eicosa-8Z,11Z,13E-trienoic acid] | around 60 m/s | 0.252 mg/kg | approximately 500 times | – | – | – | around 60 m/s | – | – | – | –
CCCCC/C=C\C/C=C\C/C=C\CCCCC(=O)O [GLA, gamma-linolenic acid, reference compound] | – | 165 mg/kg | – | – | – | – | – | – | – | – | –
